“And” between values parts separate entries of the source, which are not always exact repeats. Equal entries are not always repeated. Where two headings read alike, the source gives them in different places. Marks after values point to notes of the source that are not given here.
Tests used:
CYP2C19 = CYP2C19 (Homo sapiens, UniProt P33261); set-up: from tissue; host or cells: human liver microsomes; conditions: human liver microsomes, cited from earlier work
human liver microsomes [1] = conditions: ref 79 (DSM265), 78 (DSM421); cited from earlier work
[2] = cited from earlier work; for Solubility FaSSIF-V2 (5–6 h) / Solubility FaSSGF (1 h) / Solubility FeSSIF-V2 (5–6 h): ref 77 (M5717), 78 (DSM421), 79 (DSM265)
CYP1A2 = molecular target: T1, CYP1A2 (Homo sapiens, UniProt P05177); set-up: from tissue; host or cells: human liver microsomes; conditions: human liver microsomes, cited from earlier work; for CYP1A2 % inhibition at max conc: nmi = no measurable inhibition
T1 sequence (P05177 1-516): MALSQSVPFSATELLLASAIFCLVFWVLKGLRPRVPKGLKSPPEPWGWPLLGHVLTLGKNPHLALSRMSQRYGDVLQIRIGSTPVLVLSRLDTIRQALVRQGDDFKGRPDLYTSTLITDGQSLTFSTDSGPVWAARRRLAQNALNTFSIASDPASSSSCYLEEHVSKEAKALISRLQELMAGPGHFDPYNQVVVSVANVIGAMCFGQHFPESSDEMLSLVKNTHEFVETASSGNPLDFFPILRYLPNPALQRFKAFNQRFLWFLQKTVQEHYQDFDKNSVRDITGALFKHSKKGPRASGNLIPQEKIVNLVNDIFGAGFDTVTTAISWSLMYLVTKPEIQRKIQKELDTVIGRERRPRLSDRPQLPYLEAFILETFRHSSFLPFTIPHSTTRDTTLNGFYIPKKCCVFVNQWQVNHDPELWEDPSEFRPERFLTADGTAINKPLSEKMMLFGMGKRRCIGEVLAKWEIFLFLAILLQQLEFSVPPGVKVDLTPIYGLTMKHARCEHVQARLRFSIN

CYP2D6 = CYP2D6 (Homo sapiens, UniProt P10635); set-up: from tissue; host or cells: human liver microsomes; conditions: human liver microsomes, cited from earlier work
Sequence of CYP2D6 (P10635 whole entry): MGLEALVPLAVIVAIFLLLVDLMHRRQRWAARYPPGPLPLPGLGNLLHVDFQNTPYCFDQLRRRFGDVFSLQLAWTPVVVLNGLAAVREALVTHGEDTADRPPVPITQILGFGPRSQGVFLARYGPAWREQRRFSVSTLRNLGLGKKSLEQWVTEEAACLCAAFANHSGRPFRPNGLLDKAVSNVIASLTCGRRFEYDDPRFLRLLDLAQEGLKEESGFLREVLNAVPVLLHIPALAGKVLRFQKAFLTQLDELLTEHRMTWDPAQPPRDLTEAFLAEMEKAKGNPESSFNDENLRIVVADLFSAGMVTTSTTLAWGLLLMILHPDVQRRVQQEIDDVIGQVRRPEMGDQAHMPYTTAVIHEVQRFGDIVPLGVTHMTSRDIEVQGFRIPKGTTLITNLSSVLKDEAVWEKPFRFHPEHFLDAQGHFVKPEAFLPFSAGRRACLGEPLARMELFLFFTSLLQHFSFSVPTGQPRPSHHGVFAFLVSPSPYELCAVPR

CYP3A4 = CYP3A4 (Homo sapiens, UniProt P08684); set-up: from tissue; host or cells: human liver microsomes; conditions: human liver microsomes, cited from earlier work
Sequence of CYP3A4 (P08684 whole entry): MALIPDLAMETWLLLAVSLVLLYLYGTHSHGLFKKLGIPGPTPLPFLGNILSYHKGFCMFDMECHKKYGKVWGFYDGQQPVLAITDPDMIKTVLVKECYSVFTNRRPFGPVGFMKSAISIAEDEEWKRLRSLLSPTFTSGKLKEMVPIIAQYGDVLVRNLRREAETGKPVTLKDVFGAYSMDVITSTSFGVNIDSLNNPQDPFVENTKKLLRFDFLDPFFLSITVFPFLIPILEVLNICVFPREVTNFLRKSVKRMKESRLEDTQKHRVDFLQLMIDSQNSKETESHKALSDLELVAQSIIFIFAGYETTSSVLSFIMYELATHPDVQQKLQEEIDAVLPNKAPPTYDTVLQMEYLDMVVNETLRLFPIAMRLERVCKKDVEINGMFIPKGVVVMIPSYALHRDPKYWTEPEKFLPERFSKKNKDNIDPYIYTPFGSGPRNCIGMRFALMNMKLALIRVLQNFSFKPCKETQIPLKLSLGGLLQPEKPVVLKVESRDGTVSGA

human liver microsomes [3] = conditions: human liver microsomes, cited from earlier work
[4] = molecular target: T2, Albumax medium (lipid rich bovine serum albumin) (Bos taurus, UniProt P02769); set-up: method as in PMID 26180101; conditions: cited from earlier work
T2 construct: purchased Gibco, Thermo Fisher Scientific
T2 sequence (P02769 25-607): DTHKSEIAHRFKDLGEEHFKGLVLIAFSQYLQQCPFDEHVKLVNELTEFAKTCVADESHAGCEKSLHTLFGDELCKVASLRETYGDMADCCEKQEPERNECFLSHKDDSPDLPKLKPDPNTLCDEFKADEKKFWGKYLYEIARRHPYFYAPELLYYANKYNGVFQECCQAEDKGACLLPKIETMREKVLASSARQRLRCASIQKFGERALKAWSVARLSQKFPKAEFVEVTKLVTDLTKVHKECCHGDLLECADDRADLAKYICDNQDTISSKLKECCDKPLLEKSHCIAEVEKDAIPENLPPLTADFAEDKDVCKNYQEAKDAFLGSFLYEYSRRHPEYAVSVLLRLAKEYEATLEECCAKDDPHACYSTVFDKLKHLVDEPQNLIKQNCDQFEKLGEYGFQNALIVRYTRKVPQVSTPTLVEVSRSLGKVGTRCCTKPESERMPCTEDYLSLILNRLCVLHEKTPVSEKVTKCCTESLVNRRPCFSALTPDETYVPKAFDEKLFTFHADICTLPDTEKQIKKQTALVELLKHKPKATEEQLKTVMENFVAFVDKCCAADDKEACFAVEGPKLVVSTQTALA

CYP2C9 = CYP2C9 (Homo sapiens, UniProt P11712); set-up: from tissue; host or cells: human liver microsomes; conditions: human liver microsomes, cited from earlier work
Sequence of CYP2C9 (P11712 whole entry): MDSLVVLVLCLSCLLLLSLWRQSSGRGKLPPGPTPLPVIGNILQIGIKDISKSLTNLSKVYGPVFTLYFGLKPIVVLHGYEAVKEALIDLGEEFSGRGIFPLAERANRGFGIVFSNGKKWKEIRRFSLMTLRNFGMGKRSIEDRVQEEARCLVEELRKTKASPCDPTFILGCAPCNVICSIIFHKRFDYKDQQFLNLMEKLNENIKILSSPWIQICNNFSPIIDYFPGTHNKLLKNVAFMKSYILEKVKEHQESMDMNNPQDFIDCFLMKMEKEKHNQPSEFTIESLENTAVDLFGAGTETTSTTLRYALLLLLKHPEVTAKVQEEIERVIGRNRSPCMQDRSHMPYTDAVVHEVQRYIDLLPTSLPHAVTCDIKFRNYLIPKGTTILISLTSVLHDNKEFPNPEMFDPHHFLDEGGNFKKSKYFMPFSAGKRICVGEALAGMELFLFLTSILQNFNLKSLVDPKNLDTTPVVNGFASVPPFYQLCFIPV

[5] = set-up: method as in earlier work; conditions: octanol/pH 7.4 buffer; ref 77 (M5717), 78 (DSM421); cited from earlier work
[6] = human, cited from earlier work
human liver microsomes [7] = test: Binding to human liver microsomes via ultracentrifugation; format: in vitro ADME; conditions: 0.4 mg/mL protein
Procedure, shortened: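 Unbound fraction by ultracentrifugation: Cunbound measured in protein-free supernate, Ctotal from spiked tubes held at 37 °C, sampled at start and end to check degradation. Matrix was 0.4 mg/mL human liver microsomal protein, 0.1 M phosphate pH 7.4; matrix-matched analysis against one calibration curve.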

[8] = CYP3A4 (test), read-out: CYP3A4 (test) IC50
[9] = apparent oral volume of distribution

Sequence of CYP2C19 (P33261 whole entry): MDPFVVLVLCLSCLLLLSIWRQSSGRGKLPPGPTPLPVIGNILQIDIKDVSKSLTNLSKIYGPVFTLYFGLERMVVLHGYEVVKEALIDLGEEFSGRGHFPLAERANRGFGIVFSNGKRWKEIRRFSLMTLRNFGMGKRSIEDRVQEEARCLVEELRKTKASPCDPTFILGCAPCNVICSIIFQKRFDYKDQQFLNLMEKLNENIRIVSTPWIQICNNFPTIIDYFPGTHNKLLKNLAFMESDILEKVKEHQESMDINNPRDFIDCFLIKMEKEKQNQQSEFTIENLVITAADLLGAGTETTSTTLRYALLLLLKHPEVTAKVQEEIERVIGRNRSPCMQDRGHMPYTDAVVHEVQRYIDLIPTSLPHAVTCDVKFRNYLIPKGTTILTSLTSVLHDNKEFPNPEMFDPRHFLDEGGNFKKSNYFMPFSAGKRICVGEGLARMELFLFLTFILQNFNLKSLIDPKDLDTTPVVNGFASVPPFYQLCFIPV

SMILES: Cc1cc(Nc2ccc(S(F)(F)(F)(F)F)cc2)n2nc(C(C)(F)F)nc2n1 [DSM265]
- CYP2C19 % inhibition at max conc (CYP2C19): 19%
- IC50 (CYP2C19): > 20 µM
- Fraction unbound, HLM (human liver microsomes [1]): 0.28 ± 0.0070^f
- Solubility FaSSIF-V2 (5–6 h) [2]: 5.12 µg/mL and 12.3 µM
- IC50 (CYP1A2): > 20 µM
- CYP1A2 % inhibition at max conc (CYP1A2): nmi
- IC50 (CYP2D6): 7.1 µM
- Ki (CYP2D6): 4.4 µM
- CYP3A4 (test) % inhibition at max conc (CYP3A4; CYP3A4 (test)): 34%
- IC50 (CYP3A4; [8]): > 20 µM
- HLM CLint (human liver microsomes [3]; < 15% loss over 60 min): < 7^b,e µL/min/mg
- Fraction unbound, Albumax [4]: 0.18 ± 0.0050^f
- CYP2C9 % inhibition at max conc (CYP2C9): 25%
- IC50 (CYP2C9): > 20 µM

SMILES: Cc1cc(Nc2ccc(C(F)(F)F)nc2)n2nc(C(C)(F)F)nc2n1 [DSM421]
- IC50 (CYP2C19): > 20 µM
- CYP2C19 % inhibition at max conc (CYP2C19; nmi = no measurable inhibition): nmi
- Fraction unbound, HLM (human liver microsomes [1]): 0.77 ± 0.065^f
- Solubility FaSSGF (1 h) [2]: 116 µg/mL and 324 µM
- Solubility FaSSIF-V2 (5–6 h) [2]: 92.7 µg/mL and 259 µM
- Solubility FeSSIF-V2 (5–6 h) [2]: 119 µg/mL and 332 µM
- IC50 (CYP1A2): > 20 µM
- CYP1A2 % inhibition at max conc (CYP1A2): nmi
- Measured Log D7.4 [5]: 2.36 ^g
- CYP2D6 % inhibition at max conc (CYP2D6): 33%
- IC50 (CYP2D6): > 20 µM
- CYP3A4 (test) % inhibition at max conc (CYP3A4; CYP3A4 (test), nmi = no measurable inhibition): nmi
- IC50 (CYP3A4; [8]): > 20 µM
- CYP2C9 % inhibition at max conc (CYP2C9): 16%
- IC50 (CYP2C9): > 20 µM

SMILES: CC(C)(N)CNC(=O)C[C@H]1CC[C@]2(CC1)OO[C@]1(O2)C2CC3CC(C2)CC1C3 [OZ277, Arterolane]
- half-life ([6]; in vivo, ref Table 10): ~3 h
- CL/F [6]: 184 L/h
- Food effect [6]: no
- V/F [6]: 929 L
- half-life [6]: 3 h

SMILES: O=C(NCCN1CCCC1)c1cc(-c2ccc(CN3CCOCC3)cc2)nc2ccc(F)cc12 [M5717]
- Solubility PBS7.4 (5–6 h) [2]: > 3000 µg/mL and > 6490 µM
- Solubility FaSSGF (1 h) [2]: > 3000 µg/mL and > 6490 µM
- Solubility FaSSIF-V2 (5–6 h) [2]: > 3000 µg/mL and > 6490 µM
- Solubility FeSSIF-V2 (5–6 h) [2]: > 3000 µg/mL and > 6486 µM
- Measured Log D7.4 [5]: 2.50 ^g
- Fraction unbound, HLM (human liver microsomes [7]): 0.50 ± 0.041

SMILES: CCc1nc(N)nc(N)c1OCCCOc1ccccc1CCC(=O)O.Cl [P218]
- Fraction unbound, HLM (human liver microsomes [7]): 0.88 ± 0.041

SMILES: CC(C)(C)NCc1cc(Nc2ccnc3cc(Cl)ccc23)c2c(c1O)CCCC2 [Naphthoquine]
- Fraction unbound, HLM (human liver microsomes [7]): 0.21 ± 0.015

SMILES: COc1cc(C)c2c(Oc3cccc(C(F)(F)F)c3)c(OC)cc(NC(C)CCCN)c2n1 (centres unmarked) [Tafenoquine]
- CL/F ([6]; apparent oral clearance): 3.0 L/h
- V/F [6, 9]: 1600 L
- Food effect [6]: yes
- half-life [6]: 360 h
- half-life ([6]; ref Table 10): ~ 15 days

SMILES: COc1cc2[nH]c(C)c(-c3ccc(Oc4ccc(OC(F)(F)F)cc4)cc3)c(=O)c2cc1Cl [ELQ300]
- Fraction unbound, HLM (human liver microsomes [7]): 0.002 ± 0.00010

SMILES: C[C@H]1[C@@H](O)O[C@@H]2O[C@@]3(C)CC[C@H]4[C@H](C)CC[C@@H]1[C@@]24OO3 [Dihydroartemisinin]
- half-life ([6]; in vivo, ref Table 10): approximately 1 h
- CL/F [6]: 272 L/h
- Food effect [6]: no
- V/F [6]: 385 L

SMILES: CS(=O)(=O)O.FC1CCN(CCOc2ccc(C3CCC4(CC3)OOC3(OO4)C4CC5CC(C4)CC3C5)cc2)CC1 (centres unmarked) [TDD-E209]
- IC50 (CYP2C19): > 20 µM
- CYP2C19 % inhibition at max conc (CYP2C19; nmi = no measurable inhibition): nmi
- IC50 (CYP1A2): > 20 µM
- CYP1A2 % inhibition at max conc (CYP1A2): nmi
- Fraction unbound, HLM (human liver microsomes [7]): 0.0003 ± 0.000010
- IC50 (CYP2D6): > 20 µM
- CYP2D6 % inhibition at max conc (CYP2D6; nmi = no measurable inhibition): nmi
- CYP3A4 (midaz) % inhibition at max conc (CYP3A4; CYP3A4 (midaz)): 33%
- IC50 (CYP3A4; CYP3A4 (midaz), read-out: CYP3A4 (midaz) IC50): > 20 µM
- CYP3A4 (test) % inhibition at max conc (CYP3A4; CYP3A4 (test)): 43%
- IC50 (CYP3A4; [8]): > 20 µM
- HLM CLint (human liver microsomes [3]): 25.5^e µL/min/mg
- IC50 (CYP2C9): > 20 µM
- CYP2C9 % inhibition at max conc (CYP2C9; nmi = no measurable inhibition): nmi

SMILES: CC(C)(C)NCc1cc(C(C)(C)C)cc(-c2cnc(C(F)(F)F)c(F)c2)c1O [JPC3210]
- Fraction unbound, HLM (human liver microsomes [7]): 0.029 ± 0.0030

SMILES: CN(C)C[c-]1cccc1CNc1ccnc2cc(Cl)ccc12.[Fe+2].c1cc[cH-]c1 (centres unmarked) [Ferroquine]
- Fraction unbound, HLM (human liver microsomes [7]): 0.27 ± 0.032

SMILES: CCN(CC)CCCNc1ccnc2cc(Cl)ccc12.Cl.Cl [AQ-13]
- Fraction unbound, HLM (human liver microsomes [7]): 0.66 ± 0.048

SMILES: COc1cc(NC(C)CCCN)c2ncccc2c1 (centres unmarked) [Primaquine]
- half-life ([6]; in vivo, ref Table 10): ~ 7 h
- CL/F ([6]; apparent oral clearance): 28 L/h
- V/F [6, 9]: 277 L
- Food effect [6]: no
- half-life [6]: 7 h
